Patent US8536172B2, “Inhibitors of JNK” (Roche Palo Alto LLC, priority 2009, dated 2013)

Target: Human JNK2α2 (Homo sapiens (Human), UniProt P45984)
Assay: JNK assay in vitro: phosphorylation of GST-ATF2 (19-96) with [γ-33P] ATP, JNK2
Assay type: biochemical
Conditions: 1 nM enzyme, 1 μM ATF2, 8 μM ATP (Km), 30° C. 30 min
Description: JNK activity was measured by phosphorylation of GST-ATF2 (19-96) with [γ-^33P] ATP. […] Human JNK2α2 assay contains 1 nM enzyme, 1 μM ATF2, 8 μM ATP with 1 uCi [γ-^33P] ATP. Human JNK1α1 assay contains 2 nM enzyme, 1 μM ATF2, 6 μM ATP with 1 μCi [γ-^33P] ATP. Human JNK3 (Upstate Biotech #14-501M) assay contains 2 nM enzyme, 1 μM ATF2, 4 μM ATP with 1 μCi [γ-^33P] ATP. The enzyme assay was carried out in the presence or absence of several compound concentrations. JNK and compound were pre-incubated for 10 min., followed by initiation of the enzymatic reaction by adding ATP and the substrate. The reaction mixture was incubated at 30° C. for 30 min. At the end of incubation, the reaction was terminated by transferring 25 μl of the reaction mixture to 150 μl of 10% glutathione Sepharose® slurry (Amersham #27-4574-01) containing 135 mM EDTA. The reaction product was captured on the affinity resin, and washed on a filtration plate (Millipore, MABVNOB50) with phosphate buffered saline for six times to remove free radionucleotide. The incorporation of ^33P into ATF2 was quantified on a microplate scintillation counter (Packard Topcount). Compound inhibition potency on JNK was measured by IC50 value generated from ten concentration inhibition curves fitted into the 3-parameter model: % inhibition=Maximum/(1+(IC50/[Inhibitor])^slope). Data were analyzed on Microsoft Excel for parameter estimation.

Chain of Human JNK2α2 (P45984 whole entry): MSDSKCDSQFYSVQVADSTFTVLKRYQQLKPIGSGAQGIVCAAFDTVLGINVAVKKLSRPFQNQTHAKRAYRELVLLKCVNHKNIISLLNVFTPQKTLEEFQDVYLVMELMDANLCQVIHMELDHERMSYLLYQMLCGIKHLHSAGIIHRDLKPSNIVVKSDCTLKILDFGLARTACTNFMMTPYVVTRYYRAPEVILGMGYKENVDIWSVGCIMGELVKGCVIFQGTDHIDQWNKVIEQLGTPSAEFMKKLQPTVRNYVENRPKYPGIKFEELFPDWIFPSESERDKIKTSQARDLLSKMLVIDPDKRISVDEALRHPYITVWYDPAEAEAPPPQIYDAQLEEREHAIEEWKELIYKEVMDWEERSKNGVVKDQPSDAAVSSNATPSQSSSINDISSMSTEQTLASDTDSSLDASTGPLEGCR

IC50 [nM]	Compound
55.5	N#CCC(=O)N1CCN(c2cccc3c2ccn3-c2ccnc(N[C@H]3CC[C@H](CN4CC[C@H](O)C4)CC3)n2)CC1 [Compound I-28, 3-[4-(1-{2-[4-((S)-3-Hydroxy-pyrrolidin-1-ylmethyl)-cyclohexylamino]-pyrimidin-4-yl}-1H-indol-4-yl)-piperazin-1-yl]-3-oxo-propionitrile]
570	N#CCC(=O)N1CCN(c2cccc3c2ccn3-c2ccnc(N[C@@H]3CC[C@H](O)C3)n2)CC1 [Compound I-59, 3-(4-{1-[2-((1R,3S)-3-Hydroxy-cyclopentylamino)-pyrimidin-4-yl]-1H-indol-4-yl}-piperazin-1-yl)-3-oxo-propionitrile]
105	N#CCC(=O)N1CCN(c2cccc3c2ccn3-c2ccnc(N[C@@H]3CC[C@@H](O)C3)n2)CC1 [Compound I-61, 3-(4-{1-[2-((1R,3R)-3-Hydroxy-cyclopentylamino)-pyrimidin-4-yl]-1H-indol-4-yl}-piperazin-1-yl)-3-oxo-propionitrile]
33.4	CC(C)(O)[C@H]1CC[C@H](Nc2nccc(-n3ccc4c(N5CCN(C(=O)CC#N)CC5)cccc43)n2)CC1 [Compound I-45, 3-[4-(1-{2-[4-(1-Hydroxy-1-methyl-ethyl)-cyclohexylamino]-pyrimidin-4-yl}-1H-indol-4-yl)-piperazin-1-yl]-3-oxo-propionitrile]

The remaining lines, values behind:

Compound	IC50 [nM]
CS(=O)(=O)N[C@H]1CC[C@H](Nc2nccc(-n3ccc4c(N5CCN(S(C)(=O)=O)CC5)cccc43)n2)CC1 [Compound I-3, N-(4-{4-[4-(4-Methanesulfonyl-piperazin-1-yl)-indol-1-yl]-pyrimidin-2-ylamino}-cyclohexyl)-methanesulfonamide]	182
CS(=O)(=O)N[C@H]1CC[C@H](Nc2nccc(-n3ccc4c(N5CCNCC5)cccc43)n2)CC1 [Compound I-1, N-{4-[4-(4-Piperazin-1-yl-indol-1-yl)-pyrimidin-2-ylamino]-cyclohexyl}-methanesulfonamide]	1430
CS(=O)(=O)N[C@H]1CC[C@H](Nc2nccc(-n3ccc4c(N5CCN(S(N)(=O)=O)CC5)cccc43)n2)CC1 [Compound I-8, 4-{1-[2-(4-Methanesulfonylamino-cyclohexylamino)-pyrimidin-4-yl]-1H-indol-4-yl}-piperazine-1-sulfonic acid amide]	82.3
N#CCC(=O)O[C@@H]1CCC[C@H](Nc2nccc(-n3ccc4c(N5CCN(C(=O)CC#N)CC5)cccc43)n2)C1 [Compound I-33, Cyano-acetic acid (1R,3S)-3-(4-{4-[4-(2-cyano-acetyl)-piperazin-1-yl]-indol-1-yl}-pyrimidin-2-ylamino)-cyclohexyl ester]	198
N#CCC(=O)N1CCN(c2cccc3c2ccn3-c2ccnc(NC3CCCCC3)n2)CC1 [Compound I-38, 3-{4-[1-(2-Cyclohexylamino-pyrimidin-4-yl)-1H-indol-4-yl]-piperazin-1-yl}-3-oxo-propionitrile]	42.8
CS(=O)(=O)C1CCN(c2cccc3c2ccn3-c2ccnc(N[C@H]3CC[C@H](C(=O)N4CCN5CCCCC5C4)CC3)n2)CC1 (stereo partly drawn) [Compound I-50, (4-{4-[4-(4-Methanesulfonyl-piperidin-1-yl)-indol-1-yl]-pyrimidin-2-ylamino}-cyclohexyl)-(octahydro-pyrido[1,2-a]pyrazin-2-yl)-methanone]	15.6
CC(=O)N1CCN(c2cccc3c2ccn3-c2ccnc(N[C@H]3CC[C@H](C(C)(C)O)CC3)n2)CC1 [Compound I-43, 1-[4-(1-{2-[4-(1-Hydroxy-1-methyl-ethyl)-cyclohexylamino]-pyrimidin-4-yl}-1H-indol-4-yl)-piperazin-1-yl]-ethanone]	432
COCCO[C@H]1CC[C@H](Nc2nccc(-n3ccc4c(N5CCN(C(C)=O)CC5)cccc43)n2)CC1 [Compound I-39, 1-[4-(1-{2-[4-(2-Methoxy-ethoxy)-cyclohexylamino]-pyrimidin-4-yl}-1H-indol-4-yl)-piperazin-1-yl]-ethanone]	406
